According to US5070210A, “Novel ketenimines as intermediates for insecticides” (ICI Americas Inc., priority 1990, dated 1991):

What was measured:
Type in all cases: in vivo
[1] = tested on: Cabbage Looper [Trichoplusia ni (Hubner)]; test: Cabbage looper insecticidal test; settings: second-instar larvae, percent in solution; 3-5 days
Summary of the method: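 Squash cotyledons dipped 2-3 s in compound in 50-50 acetone-water, dried, then infested with 5 second-instar larvae and held at high humidity. Mortality scored after 3-5 days at concentrations from 0.1% downward. LC50 from dosage-mortality curves, expressed as percent compound in solution.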

[2] = tested on: Housefly [Musca domestica]; test: Housefly insecticidal test; settings: μg per 25 female flies; mortality after 48 hours
Summary of the method: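 Dry-film exposure of 25 female houseflies per cage, 48 h; LC50 as μg per 25 flies.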

[3] = tested on: Tobacco Budworm [Heliothis virescens (Fabricius)] larvae; test: Tobacco budworm contact test; settings: second-instar larvae, percent in solution, 5 days
Procedure: The compounds in Tables 1 and 2 above were tested for insecticidal activity using the following testing procedures. LC50 values, based on the results of these tests and calculated according to dosage-mortality curves, are expressed in Table 3.
Tobacco Budworm [Heliothis virescens (Fabricius)]:
(a) Contact: Test compounds were diluted in a 50-50 acetone-water solution. Cotton (Gossypium sp.) cotyledons were immersed in the test solutions for 2-3 seconds and placed on a wire screen to dry. The dried leaves were placed in petri dishes containing a moistened piece of filter paper and infested with 5 second-instar tobacco budworm larvae. The dishes were placed in a high humidity chamber for 5 days, and percent mortality of the larvae recorded. Test concentrations ranged from 0.1% downward. The LC-50 values are expressed below in Table 3 under the heading "TBW-C" in terms of percent of the test compound in the solution.

[4] = tested on: Tobacco Budworm [Heliothis virescens (Fabricius)] eggs; test: Tobacco budworm egg test; settings: 2-day old eggs, percent in solution
Summary of the method: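 Paper-towel patches of 2-day-old eggs dipped in acetone solutions of compound (0.1% downward), held on larval rearing medium at 78° F. Mortality scored once all control eggs had hatched and larvae were feeding; LC50 from dosage-mortality curves, expressed as percent compound in solution.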

[5] = tested on: Aster Leafhopper [Macrosteles fascifrens (Stal)]; test: Aster leafhopper insecticidal test; settings: adults/nymphs, percent in solution; 48 hours
Summary of the method: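 LC50 values, given as percent of test compound in the dip solution, were derived from dosage-mortality curves over concentrations from 0.05% downward. Mortality was counted 48 hours after ten leafhopper adults/nymphs were enclosed on treated seedlings. The seedlings were oats, about 10 cm tall, briefly dipped in 50-50 acetone-water.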

[6] = tested on: Maize weevil [Sitophilus Zeamais (Motschulsky)]; test: Maize weevil insecticidal test; settings: adult weevils, percent in solution; 48 hours
Summary of the method: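 LC50, in percent of compound in solution, was derived from dosage-mortality curves after 48 h at about 25 °C. Ten adult weevils per container fed on four corn seeds briefly immersed in acetone:water (50:50) solutions of up to 0.01% and dried.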

Compound | LC50, CL [1] | LC50, HF [2] | LC50, TBW, C (TBW-C) [3] | LC50, TBW, E (TBW-E) [4] | LC50, LH [5] | LC50, MW [6]
ClC(Cl)C(=Nc1ccccc1)OCc1cccc(Oc2ccccc2)c1 [Compound 41] | 0.015% | 4.5 µg | 0.0035% | 0.04% | – | –
Fc1ccc(N=C(OCc2cccc(Oc3ccccc3)c2)C(Cl)Cl)cc1 [Compound 44] | – | 3 µg | < 0.1% | 0.06% | – | –
Cc1c(F)cccc1N=C(OCc1cccc(Oc2ccccc2)c1)C(C)C [Compound 73] | 0.004% | 25 µg | 0.005% | 0.025% | – | –
Cc1ccc(F)cc1N=C(OCc1cccc(Oc2ccccc2)c1)C(C)C [Compound 74] | 0.005% | 25 µg | 0.0025% | 0.025% | – | –
COc1ccc(N=C(OCc2cccc(Oc3ccccc3)c2)C(C)C)cc1Cl [Compound 95] | 0.0025% | 10 µg | 0.004% | 0.025% | – | –
Cc1cc(Cl)ccc1N=C(OCc1cccc(Oc2ccccc2)c1)C(C)C [Compound 96] | 0.003% | 35 µg | 0.0025% | 0.025% | – | –
CC(C)(C)c1ccc(N=C(OCc2cccc(Oc3ccccc3)c2)C(Cl)Cl)cc1 [Compound 140] | < 0.1% | > 100 µg | > 0.1% | > 0.1% | – | –
COc1ccc(N=C(OCc2cccc(Oc3ccccc3)c2)C(C)C)c(OC)c1 [Compound 146] | 0.017% | 40 µg | 0.025% | > 0.1% | – | –
CC(=O)c1ccc(N=C(OCc2cccc(Oc3ccccc3)c2)C(C)C)cc1 [Compound 147] | 0.01% | 10 µg | 0.0075% | > 0.1% | – | –
CC(C)C(=Nc1cccc(C(F)(F)F)c1)OCc1ccc(F)c(Oc2ccc(Cl)cc2)c1 [Compound 266] | 0.00016% | 10 µg | 0.0007% | 0.06% | – | –
C#CC(OC(=Nc1ccc(F)c(Cl)c1)C(C)C)c1cccc(Oc2ccccc2)c1 (stereo not shown) [Compound 533, N-(3-chloro-4-fluorophenyl)-O-[1-(3-phenoxyphenyl)-2-propyn-1-yl]isobutyrimidate] | > 0.1% | 60 µg | – | > 0.1% | > 0.05% | > 0.01%
CC(C)C(=Nc1ccc(F)c(Cl)c1)OCC#CCOc1ccccc1 [Compound 534] | < 0.1% | > 100 µg | – | > 0.1% | > 0.05% | > 0.01%
CC(C)C(=Nc1ccc(C(F)(F)F)cc1)OCc1cccc(Cc2ccccc2)c1 [Compound 535] | > 0.1% | 41 µg | – | > 0.1% | > 0.05% | > 0.01%
Cc1c(COC(=Nc2ccc(C(C)(C)C)cc2)C(C)C)cccc1-c1ccccc1 [Compound 536] | < 0.1% | > 100 µg | – | > 0.1% | > 0.05% | > 0.01%
CC(C)C(=Nc1ccc(F)c(Cl)c1)OCc1cccc(Cc2ccccc2)c1 [Compound 537] | > 0.1% | 20 µg | – | > 0.1% | > 0.05% | > 0.01%
CC(C)C(=Nc1ccc(OC(F)(F)F)cc1)OCc1cccc(Cc2ccccc2)c1 [Compound 538] | > 0.1% | 75 µg | – | > 0.1% | > 0.05% | > 0.01%
CC(C)C(=Nc1ccc([N+](=O)[O-])cc1)OCc1coc(Cc2ccccc2)c1 [Compound 539] | > 0.1% | 22 µg | – | > 0.1% | > 0.05% | > 0.01%
CC(C)C(=Nc1ccc2c(c1)OCO2)OCc1ccnc(Oc2ccccc2)c1 [Compound 540] | < 0.1% | > 100 µg | – | > 0.1% | > 0.05% | > 0.01%
COCc1c(F)c(F)c(COC(=Nc2ccc(C(C)(C)C)cc2)C(C)C)c(F)c1F [Compound 544] | > 0.1% | > 100 µg | – | > 0.1% | > 0.05% | > 0.01%
Cc1cccc(N=C(OCc2cccc(Oc3ccc(Cl)cc3)n2)C(C)C)c1 [Compound 545] | > 0.1% | < 100 µg | – | > 0.1% | > 0.05% | > 0.01%
C#CCc1c(F)c(F)c(COC(=Nc2cccc(C(F)(F)F)c2)C(C)C)c(F)c1F [Compound 546] | 0.0001% | < 100 µg | – | > 0.1% | < 0.05% | 0.0032%
C#CCc1c(F)c(F)c(COC(=Nc2ccc3c(c2)OCO3)C(C)C)c(F)c1F [Compound 547] | 0.0005% | < 100 µg | – | 0.05% | < 0.05% | > 0.01%
CC(C)C(=Nc1cccc(C(F)(F)F)c1)OCC#CCOc1ccccc1 [Compound 548] | < 0.1% | > 100 µg | – | > 0.1% | > 0.05% | > 0.01%
CC(C)C(=Nc1ccc(F)c(Cl)c1)OCc1cccc(Oc2ccccn2)c1 [Compound 549] | > 0.1% | < 100 µg | – | > 0.1% | > 0.05% | > 0.01%
